Measurements taken from ChEMBL document CHEMBL1139703, “Synthesis and structure-activity relationships of 3-phenyl-2-propenamides as inhibitors of glycogen phosphorylase a” (Bioorg Med Chem Lett, 2006).

Tests used:
[1] = target: T1, Glycogen phosphorylase, liver form (Homo sapiens, UniProt P06737); assay: Inhibition of human liver GPa in presence of glucose
T1 sequence (P06737 whole entry): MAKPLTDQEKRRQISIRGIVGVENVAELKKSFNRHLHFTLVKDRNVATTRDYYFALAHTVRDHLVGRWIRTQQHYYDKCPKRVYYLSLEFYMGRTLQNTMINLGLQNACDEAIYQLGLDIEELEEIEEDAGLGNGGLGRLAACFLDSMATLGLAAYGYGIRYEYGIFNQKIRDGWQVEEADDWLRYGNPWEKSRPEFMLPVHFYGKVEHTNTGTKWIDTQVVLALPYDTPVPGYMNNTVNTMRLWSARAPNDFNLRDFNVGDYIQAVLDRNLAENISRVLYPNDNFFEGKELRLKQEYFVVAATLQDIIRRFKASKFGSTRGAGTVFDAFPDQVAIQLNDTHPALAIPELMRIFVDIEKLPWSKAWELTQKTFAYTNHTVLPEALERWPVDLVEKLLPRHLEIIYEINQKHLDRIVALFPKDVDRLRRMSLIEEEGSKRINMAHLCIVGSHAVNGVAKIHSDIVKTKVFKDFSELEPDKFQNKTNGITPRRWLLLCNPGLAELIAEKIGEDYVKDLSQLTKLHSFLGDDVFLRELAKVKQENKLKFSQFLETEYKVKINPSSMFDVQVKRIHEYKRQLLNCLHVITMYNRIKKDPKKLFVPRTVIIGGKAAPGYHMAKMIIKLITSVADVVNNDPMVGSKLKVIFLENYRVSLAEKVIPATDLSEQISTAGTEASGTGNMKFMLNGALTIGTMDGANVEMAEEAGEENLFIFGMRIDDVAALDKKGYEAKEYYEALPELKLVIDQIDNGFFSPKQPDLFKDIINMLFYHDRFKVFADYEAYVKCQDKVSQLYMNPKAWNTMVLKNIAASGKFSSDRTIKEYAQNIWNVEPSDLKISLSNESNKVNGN

[2] = target: T1, Glycogen phosphorylase, liver form; assay: Inhibition of human liver GPa in absence of glucose
[3] = Permeability in artificial phospholipid bilayer membrane at pH 7.05; format: ADME; settings: not told, read-out: permeability

| SMILES | IC50 [1] | IC50 [2] | Papp [3] |
| --- | --- | --- | --- |
| O=C(/C=C/c1ccc(Cl)c(Cl)c1)NCCCCCCN1CCN(C(=O)Nc2ccc(Cl)c(Cl)c2)CC1 | 0.44 µM | – | – |
| COc1cccc(NC(=O)N2CCN(CCCCCNC(=O)/C=C/c3ccc(Cl)c(Cl)c3)CC2)c1 | 100 µM | – | – |
| O=C(/C=C/c1ccc(Cl)c(Cl)c1)NCCCCCN1CCCN(C(=O)Nc2ccc(Cl)cc2)CC1 | 51 µM | – | – |
| COc1cccc(NC(=O)N2CCCN(CCCCCNC(=O)/C=C/c3ccc(Cl)c(Cl)c3)CC2)c1 | 10 µM | – | – |
| O=C(/C=C/c1ccc(Cl)c(Cl)c1)NCCCCCN1CCCN(C(=O)Nc2ccc(F)c(Cl)c2)CC1 | 0.72 µM | – | – |
| O=C(/C=C/c1ccccc1)NCCCCN1CCCN(C(=O)Nc2ccc(Cl)c(Cl)c2)CC1 | 0.17 µM | – | – |
| O=C(/C=C/c1ccc(Cl)c(Cl)c1)NCCCCCN1CCN(C(=O)Nc2ccc(Cl)c(Cl)c2)CC1 | 0.94 µM | > 20 µM | – |
| O=C(/C=C/c1ccc(Cl)c(Cl)c1)NCCCCCN1CCN(C(=O)Nc2ccc(Cl)c(C(F)(F)F)c2)CC1 | 51 µM | – | – |
| O=C(/C=C/c1ccc(Cl)c(Cl)c1)NCCCCCN1CCCN(C(=O)Nc2ccc(Cl)c(C(F)(F)F)c2)CC1 | 1.6 µM | – | – |
| O=C(/C=C/c1ccc(Cl)c(Cl)c1)NCCN1CCCN(C(=O)Nc2ccc(Cl)c(Cl)c2)CC1 | 100 µM | – | – |
| O=C(/C=C/c1ccc(Cl)c(Cl)c1)NCCCN1CCN(C(=O)Nc2ccc(Cl)c(Cl)c2)CC1 | 0.32 µM | – | – |
| O=C(/C=C/c1ccc(Cl)c(Cl)c1)NCCN1CCN(C(=O)Nc2ccc(Cl)c(Cl)c2)CC1 | 90 µM | – | – |
| O=C(/C=C/c1ccc(Cl)c(Cl)c1)NCCCCCN1CCCN(C(=O)Nc2cccc(Cl)c2)CC1 | 1.3 µM | – | – |
| O=C(/C=C/c1ccc(Cl)c(Cl)c1)NCCCCCN1CCCN(C(=O)Nc2ccc(Cl)c(Cl)c2)CC1 | 0.47 µM | – | – |
| O=C(/C=C/c1ccc(Cl)c(Cl)c1)NCCCCCN1CCN(C(=O)Nc2ccc(F)c(Cl)c2)CC1 | 0.98 µM | – | – |

Other lines, results leading:

| IC50 [1] | IC50 [2] | Papp [3] | SMILES |
| --- | --- | --- | --- |
| 70 µM | – | – | O=C(/C=C/c1ccc(Cl)c(Cl)c1)NCCCCCN1CCN(C(=O)Nc2ccc3c(c2)OCO3)CC1 |
| 100 µM | – | – | Cc1ccc(NC(=O)N2CCN(CCCCCNC(=O)/C=C/c3ccc(Cl)c(Cl)c3)CC2)cc1 |
| 0.71 µM | – | – | O=C(/C=C/c1ccc(Cl)c(Cl)c1)NCCCCN1CCN(C(=O)Nc2ccc(Cl)c(Cl)c2)CC1 |
| 100 µM | – | – | O=C(/C=C/c1ccc(Cl)c(Cl)c1)NCCCCCN1CCN(C(=O)Nc2ccc(Cl)cc2)CC1 |
| 100 µM | – | – | Cc1ccc(NC(=O)N2CCCN(CCCCCNC(=O)/C=C/c3ccc(Cl)c(Cl)c3)CC2)cc1 |
| 51 µM | – | – | O=C(/C=C/c1ccc(Cl)c(Cl)c1)NCCCCCN1CCN(C(=O)Nc2cccc(Cl)c2)CC1 |
| 0.63 µM | – | 9 ×10⁻⁶ cm/s | O=C(/C=C/c1ccc(Cl)c(Cl)c1)NCCCCCN1CCC(C(=O)Nc2ccc(Cl)c(Cl)c2)CC1 |
| 24 µM | – | – | O=C(/C=C/c1ccc(Cl)c(Cl)c1)NCCCCCCN1CCCN(C(=O)Nc2ccc(Cl)c(Cl)c2)CC1 |
